Results as given in US20230026696A1, “TRPV4 RECEPTOR LIGANDS” (UNIVERSITY OF UTAH RESEARCH FOUNDATION, priority 2019, published 2023).
Where a name gives a salt, the structure may show the parent alone. One block for each molecule: values may come before it.

Assays:
[1] = system: intraocular pressure (IOP); assay: In vivo tonometric IOP assay in microbead mouse model of ocular hypertension; settings: FIG. 2 right panel; P<0.01 / P<0.001, two-way ANOVA
Experimental: FIG. 1 is a graph showing the effect that two concentrations of topical compound 11 (0.01% and 0.1%), 0.5% timolol, and control PBS had on IOP in the microbead (MB) mouse model of ocular hypertension (N=3 separate experiments, with 7-10 mice per experimental cohort). Error bars=±S.E.M. Ocular hypertension in the mouse model of primary open angle glaucoma (POAG) was induced with intracameral injection of polystyrene microbeads. Antagonist stock solutions (10 mM) were prepared in DMSO, the final concentrations were made in PBS diluted to <0.0001% DMSO.
FIG. 2 is a bar chart showing the cumulative data for pre-IOP elevation cohorts of mouse eyes (N≥3 separate experiments, with 7-10 mice per experimental cohort). Left panel: the IOP data are plotted as % of the control value of the timolol-treated eye cohort. Middle panel: MB injection elevated IOP in all experimental cohorts.
A tonometric assay was used to measured IOP changes in mice models of ocular hypertension over a period of weeks following topical application of the compounds.
To prepare the mice models of ocular hypertension, mice were anesthetized with an intraperitoneal (IP) injection of ketamine/xylazine (90 mg/10 mg/kg of body weight). Eye drops of 0.5% proparacaine hydrochloride with 1% tropicamide ophthalmic solution (Bausch & Lomb) were applied to numb and dilate the eyes of the mice. IOP was elevated in the ipsilateral eye by injecting 2 μl of polystyrene microbeads (7.8 μm FluoSpheres; Bangs Laboratories) with a Hamilton syringe into the anterior chamber over 60 seconds. The contralateral eye was injected with phosphate buffered saline (PBS).
A rebound tonometer was used to measure IOP at 1, 2, 6 and 10 hours post-injection after topical administration of Compounds 11 and 52 and timolol, a known medication for treatment of IOP associated with ocular hypertension and glaucoma. The IOP was determined from the means of 10 to 20 readings, following the protocol described in Ryskamp et al., Sci Rep 6:30583, 2016. […]

[2] = system: intraocular pressure (IOP); assay: as above
human TRPV4 = target: T1, human TRPV4 (Homo sapiens, UniProt Q9HBA0); assay: Fluorometric cell-based Ca2+ flux assay, HEK-293 cells stably overexpressing human TRPV4; settings: for IC50: HEK-293 stably overexpressing human TRPV4, agonist GSK1016790A 30 nM
T1 construct: expressed in transfected cells
Summary of the method: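 HEK-293 cells stably overexpressing human TRPV4, Fluo 4-loaded, pre-incubated 30 min at 37° C with compound, then stimulated with 30 nM GSK1016790A (final). Max ΔF/s over 1 min, media-corrected, expressed relative to no-antagonist control; IC50 from ≥8 concentrations, ≥3 replicates.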

human TRPA1 = target: T2, human TRPA1 (Homo sapiens, UniProt O75762); assay: Selectivity Ca2+ flux assay, TRPA1 stably over-expressed in HEK-293 cells; type: cell-based; settings: agonist 2,4-ditert butylphenol (50 μM)
T2 construct: expressed in transfected cells
Experimental: (§1) To determine selectivity of the various test compounds for TRPV4, select compounds with activity in the TRPV4 fluorometric cell-based Ca^2+ flux assays were also tested for inhibition of human TRPA1 stably over-expressed in HEK-293 cells, TRPM8 stably over-expressed in HEK-293 cells, TRPV3 stably over-expressed in HEK-293 cells, and TRPV1 stably overexpressed in human lung epithelial (BEAS-2B) cells. The assays were conducted substantially as described above for HEK-293 cells that stably overexpress TRPV4, although for TRPV1, the BEAS-2B cells were maintained in LHC-9 media containing Geneticin (300 μg/mL) and were loaded with Fluo-4AM at room temperature. The agonist for TRPA1 was 2,4-ditert butylphenol (50 μM), for TRPM8 was icilin (50 μM), for TRPV3 was carvacrol (300 μM), and for TRPV1 was nonivamide (5 μM). All other aspects of the assay described above were the same.

TRPM8 = target: T3, TRPM8 (Homo sapiens, UniProt Q7Z2W7); assay: Selectivity Ca2+ flux assay, TRPM8 stably over-expressed in HEK-293 cells; type: cell-based; settings: agonist icilin (50 μM)
T3 construct: expressed in transfected cells
Experimental: as §1

TRPV3 = target: T4, TRPV3 (Homo sapiens, UniProt Q8NET8); assay: Selectivity Ca2+ flux assay, TRPV3 stably over-expressed in HEK-293 cells; type: cell-based; settings: agonist carvacrol (300 μM)
T4 construct: expressed in transfected cells
T4 sequence (Q8NET8 1-790): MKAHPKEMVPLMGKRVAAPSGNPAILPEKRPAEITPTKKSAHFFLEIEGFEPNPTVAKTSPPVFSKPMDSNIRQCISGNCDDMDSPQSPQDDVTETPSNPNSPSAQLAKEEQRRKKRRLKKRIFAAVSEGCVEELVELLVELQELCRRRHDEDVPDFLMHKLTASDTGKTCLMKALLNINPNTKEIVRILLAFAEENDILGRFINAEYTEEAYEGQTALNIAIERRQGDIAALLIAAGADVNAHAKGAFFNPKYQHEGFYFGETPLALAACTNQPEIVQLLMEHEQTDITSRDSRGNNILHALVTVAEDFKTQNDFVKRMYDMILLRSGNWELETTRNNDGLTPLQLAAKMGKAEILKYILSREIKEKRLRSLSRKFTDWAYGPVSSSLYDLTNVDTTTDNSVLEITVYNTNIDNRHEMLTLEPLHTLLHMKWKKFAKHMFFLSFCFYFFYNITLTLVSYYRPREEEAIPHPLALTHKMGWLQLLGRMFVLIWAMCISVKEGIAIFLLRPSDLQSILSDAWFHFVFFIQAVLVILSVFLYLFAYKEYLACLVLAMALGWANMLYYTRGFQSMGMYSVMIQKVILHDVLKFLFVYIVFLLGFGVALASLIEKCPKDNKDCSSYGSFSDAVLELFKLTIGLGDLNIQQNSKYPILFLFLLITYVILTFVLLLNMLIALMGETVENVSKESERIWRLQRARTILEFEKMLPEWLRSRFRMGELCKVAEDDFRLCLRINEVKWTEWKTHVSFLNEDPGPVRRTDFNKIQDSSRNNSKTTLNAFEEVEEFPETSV
Experimental: as §1

TRPV1 = target: T5, TRPV1 (Homo sapiens, UniProt Q8NER1); assay: Selectivity Ca2+ flux assay, TRPV1 stably overexpressed in human lung epithelial (BEAS-2B) cells; type: cell-based; settings: agonist nonivamide (5 μM)
T5 construct: expressed in transfected cells
Experimental: as §1

[3] = system: intraocular pressure (IOP); settings: applied at 0.3-1.0 mM; Ryskamp et al., Sci Rep 2016; cited from earlier work
[4] = system: intraocular pressure (IOP); settings: OAG-affected dogs; literature; cited from earlier work

T1 sequence (Q9HBA0 whole entry): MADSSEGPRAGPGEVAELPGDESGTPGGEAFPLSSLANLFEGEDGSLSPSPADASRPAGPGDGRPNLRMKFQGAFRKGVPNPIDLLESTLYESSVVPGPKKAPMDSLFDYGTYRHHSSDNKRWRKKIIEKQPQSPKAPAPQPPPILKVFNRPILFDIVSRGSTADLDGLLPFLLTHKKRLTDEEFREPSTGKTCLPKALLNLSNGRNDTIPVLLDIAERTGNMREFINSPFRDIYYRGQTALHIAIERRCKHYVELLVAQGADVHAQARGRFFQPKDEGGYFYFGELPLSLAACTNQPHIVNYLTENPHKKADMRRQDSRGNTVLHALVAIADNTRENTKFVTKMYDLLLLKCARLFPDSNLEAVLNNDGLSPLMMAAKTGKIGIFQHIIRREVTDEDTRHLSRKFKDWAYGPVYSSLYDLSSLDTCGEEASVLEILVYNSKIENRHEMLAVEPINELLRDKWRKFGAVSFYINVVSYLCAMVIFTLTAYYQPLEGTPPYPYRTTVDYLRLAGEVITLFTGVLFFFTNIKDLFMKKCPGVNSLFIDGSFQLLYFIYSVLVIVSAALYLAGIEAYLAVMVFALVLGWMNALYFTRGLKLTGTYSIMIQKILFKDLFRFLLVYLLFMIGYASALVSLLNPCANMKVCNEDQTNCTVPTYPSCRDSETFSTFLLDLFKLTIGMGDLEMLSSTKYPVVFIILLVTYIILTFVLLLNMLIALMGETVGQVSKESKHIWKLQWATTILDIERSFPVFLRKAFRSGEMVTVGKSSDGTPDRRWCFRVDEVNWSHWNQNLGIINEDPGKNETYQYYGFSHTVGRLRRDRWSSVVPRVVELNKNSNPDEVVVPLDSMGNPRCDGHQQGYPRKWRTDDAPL
T2 sequence (O75762 whole entry): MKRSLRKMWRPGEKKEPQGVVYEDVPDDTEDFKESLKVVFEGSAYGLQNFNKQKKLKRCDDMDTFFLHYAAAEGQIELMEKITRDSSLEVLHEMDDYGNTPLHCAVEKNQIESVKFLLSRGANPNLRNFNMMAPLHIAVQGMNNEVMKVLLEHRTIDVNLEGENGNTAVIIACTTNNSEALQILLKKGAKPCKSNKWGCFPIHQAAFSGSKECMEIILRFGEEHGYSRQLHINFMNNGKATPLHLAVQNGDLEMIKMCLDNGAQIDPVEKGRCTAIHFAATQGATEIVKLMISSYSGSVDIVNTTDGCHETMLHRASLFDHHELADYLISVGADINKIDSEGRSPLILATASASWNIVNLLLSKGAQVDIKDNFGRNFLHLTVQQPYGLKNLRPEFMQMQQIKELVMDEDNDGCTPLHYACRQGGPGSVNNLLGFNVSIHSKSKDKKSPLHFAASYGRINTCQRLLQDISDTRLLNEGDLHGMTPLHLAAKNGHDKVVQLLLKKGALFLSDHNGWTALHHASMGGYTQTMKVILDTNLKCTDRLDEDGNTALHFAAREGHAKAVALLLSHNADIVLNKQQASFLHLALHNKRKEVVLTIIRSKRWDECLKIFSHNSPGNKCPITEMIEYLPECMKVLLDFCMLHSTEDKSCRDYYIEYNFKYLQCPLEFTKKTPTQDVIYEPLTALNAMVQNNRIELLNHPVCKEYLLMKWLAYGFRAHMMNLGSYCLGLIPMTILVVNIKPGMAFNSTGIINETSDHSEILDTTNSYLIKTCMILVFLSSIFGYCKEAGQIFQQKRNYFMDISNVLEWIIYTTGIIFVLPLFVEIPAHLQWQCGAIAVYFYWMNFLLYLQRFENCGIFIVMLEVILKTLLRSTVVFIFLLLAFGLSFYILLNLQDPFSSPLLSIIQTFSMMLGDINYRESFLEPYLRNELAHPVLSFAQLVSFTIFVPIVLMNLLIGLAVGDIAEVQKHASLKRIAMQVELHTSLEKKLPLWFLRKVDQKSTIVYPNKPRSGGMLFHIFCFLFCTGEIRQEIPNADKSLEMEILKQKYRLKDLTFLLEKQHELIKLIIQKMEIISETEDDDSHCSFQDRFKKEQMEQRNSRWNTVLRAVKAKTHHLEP
T5 sequence (Q8NER1 whole entry): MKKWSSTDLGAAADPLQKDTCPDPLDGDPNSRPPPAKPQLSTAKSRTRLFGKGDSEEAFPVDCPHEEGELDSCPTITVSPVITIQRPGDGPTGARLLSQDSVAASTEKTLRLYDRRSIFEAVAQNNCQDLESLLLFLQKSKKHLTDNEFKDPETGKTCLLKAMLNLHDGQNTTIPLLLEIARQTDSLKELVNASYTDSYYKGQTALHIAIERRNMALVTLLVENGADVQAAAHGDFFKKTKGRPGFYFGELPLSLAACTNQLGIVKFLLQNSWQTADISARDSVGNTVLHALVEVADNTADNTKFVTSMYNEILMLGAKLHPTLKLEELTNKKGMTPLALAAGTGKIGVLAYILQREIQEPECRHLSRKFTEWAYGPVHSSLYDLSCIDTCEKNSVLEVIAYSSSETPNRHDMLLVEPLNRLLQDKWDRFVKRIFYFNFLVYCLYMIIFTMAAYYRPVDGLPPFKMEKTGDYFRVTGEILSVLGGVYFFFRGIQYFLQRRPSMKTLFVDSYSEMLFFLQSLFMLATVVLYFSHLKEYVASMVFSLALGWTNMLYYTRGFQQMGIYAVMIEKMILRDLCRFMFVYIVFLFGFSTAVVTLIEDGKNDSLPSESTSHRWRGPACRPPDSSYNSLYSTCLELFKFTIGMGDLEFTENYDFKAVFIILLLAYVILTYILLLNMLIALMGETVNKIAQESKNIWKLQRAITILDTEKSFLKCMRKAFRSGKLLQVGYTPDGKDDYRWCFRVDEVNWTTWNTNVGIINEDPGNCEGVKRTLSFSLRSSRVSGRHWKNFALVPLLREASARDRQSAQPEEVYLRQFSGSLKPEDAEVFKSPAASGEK
T3 sequence (Q7Z2W7 whole entry): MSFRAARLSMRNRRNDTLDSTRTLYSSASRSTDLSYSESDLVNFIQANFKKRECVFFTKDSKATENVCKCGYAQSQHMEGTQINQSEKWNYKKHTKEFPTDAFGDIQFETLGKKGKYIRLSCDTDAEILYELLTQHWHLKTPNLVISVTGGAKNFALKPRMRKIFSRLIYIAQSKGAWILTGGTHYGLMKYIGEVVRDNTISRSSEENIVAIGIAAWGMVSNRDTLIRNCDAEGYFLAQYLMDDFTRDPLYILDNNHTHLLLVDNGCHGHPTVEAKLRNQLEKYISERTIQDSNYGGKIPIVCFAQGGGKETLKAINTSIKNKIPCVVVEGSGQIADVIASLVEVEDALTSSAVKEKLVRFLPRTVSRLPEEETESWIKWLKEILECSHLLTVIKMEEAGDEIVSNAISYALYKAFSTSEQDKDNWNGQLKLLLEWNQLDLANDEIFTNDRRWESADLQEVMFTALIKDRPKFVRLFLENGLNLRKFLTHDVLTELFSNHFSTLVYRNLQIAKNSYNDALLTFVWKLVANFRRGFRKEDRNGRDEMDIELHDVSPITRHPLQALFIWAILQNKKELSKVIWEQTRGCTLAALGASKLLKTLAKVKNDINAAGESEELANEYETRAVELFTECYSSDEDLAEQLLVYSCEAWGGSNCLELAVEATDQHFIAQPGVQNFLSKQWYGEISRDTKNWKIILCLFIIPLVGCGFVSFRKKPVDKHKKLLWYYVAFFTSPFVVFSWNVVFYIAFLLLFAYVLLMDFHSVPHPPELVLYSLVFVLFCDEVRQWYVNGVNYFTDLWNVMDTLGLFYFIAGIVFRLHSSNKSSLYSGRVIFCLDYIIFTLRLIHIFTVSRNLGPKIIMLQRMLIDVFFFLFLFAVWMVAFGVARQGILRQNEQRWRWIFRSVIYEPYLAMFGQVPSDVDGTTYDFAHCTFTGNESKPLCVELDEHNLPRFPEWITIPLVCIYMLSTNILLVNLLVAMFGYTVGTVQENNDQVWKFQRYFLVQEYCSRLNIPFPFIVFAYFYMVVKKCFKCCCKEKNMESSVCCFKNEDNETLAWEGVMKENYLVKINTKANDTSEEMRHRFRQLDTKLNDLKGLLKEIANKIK

SMILES: CC(C)(C)NC[C@H](O)COc1nsnc1N1CCOCC1 [timolol, reference compound]
IOP levels in MB-treated eyes, topical application [1]: significantly lowered IOP levels | IOP after topical administration ([2]; mouse model of ocular hypertension, compounds 1 μM and 10 μM, timolol 0.5%, FIG. 1): lowered the IOP | protection of RGCs ([2]; mouse model of ocular hypertension, topical, compounds 1 μM and 10 μM, timolol 0.5%): protected RGCs

SMILES: Cc1c(C(=O)Nc2cccc(C(F)(F)F)c2)cc(-c2ccccc2)n1CCCN1CCOCC1 [HC067047, reference compound]
IOP in hypertensive mouse eyes [3]: lowered IOP | IOP levels in MB-treated eyes, intraperitoneal injection ([2]; FIG. 2 right panel, intraperitoneal): significantly lowered IOP levels

SMILES: CCN[C@H]1C[C@H](C)S(=O)(=O)c2sc(S(N)(=O)=O)cc21 [dorzolamide HCl]
IOP lowering [4]: 3.8-5.0 mm Hg

SMILES: N#Cc1ccc(OCC2(CNC[C@@H]3CCCO3)CN(S(=O)(=O)c3ccc(Cl)cc3Cl)C2)cc1F [Compound 28, (S)-4-((1-((2,4-dichlorophenyl)sulfonyl)-3-((((tetrahydrofuran-2-yl)methyl)amino)methyl)azetidin-3-yl)methoxy)-2-fluorobenzonitrile hydrochloride]
IC50 (human TRPV4): 0.0087 µM

SMILES: NC(=O)c1ccc(OCC2(CO)CN(S(=O)(=O)c3ccc(Cl)cc3Cl)C2)cc1 [Compound 93, 4-((1-((2,4-Dichlorophenyl)sulfonyl)-3-(hydroxymethyl)azetidin-3-yl)methoxy)benzamide]
IC50 (human TRPV4): ~5 µM

SMILES: N#Cc1ccc(OCC2(CO)CN(S(=O)(=O)c3ccc(Cl)cc3Cl)C2)c(Cl)c1 [Compound 88, 3-Chloro-4-((1-((2,4-dichlorophenyl)sulfonyl)-3-(hydroxymethyl)azetidin-3-yl)methoxy)benzonitrile]
IC50 (human TRPV4): 0.5 µM

SMILES: N#Cc1ccc(OCC2(CNC3COC3)CN(S(=O)(=O)c3ccccc3C#N)C2)cc1F [Compound 111, 4-((1-((2-Cyanophenyl)sulfonyl)-3-((oxetan-3-ylamino)methyl)azetidin-3-yl)methoxy)-2-fluorobenzonitrile]
IC50 (human TRPV4): 0.0476 µM

SMILES: NCc1ccc(OCC2(CO)CN(S(=O)(=O)c3ccc(Cl)cc3Cl)C2)cc1F [Compound 10, (3-((4-(Aminomethyl)-3-fluorophenoxy)methyl)-1-((2,4-dichlorophenyl)sulfonyl)azetidin-3-yl)methanol]
IC50 (human TRPV4): 10 µM

SMILES: COC(=O)c1ccc(OCC2(CO)CN(S(=O)(=O)c3ccc(Cl)cc3Cl)C2)cc1 [Compound 90, Methyl 4-((1-((2,4-dichlorophenyl)sulfonyl)-3-(hydroxymethyl)azetidin-3-yl)methoxy)benzoate]
IC50 (human TRPV4): ~5 µM

SMILES: N#Cc1ccc(OCC2(CO)CN(S(=O)(=O)c3ccccc3)C2)cc1F [Compound 72, 2-Fluoro-4-((3-(hydroxymethyl)-1-(phenylsulfonyl)azetidin-3-yl)methoxy)benzonitrile]
IC50 (human TRPV4): 5 µM

Now from value to molecule:

IC50 (human TRPV4): 0.0006 µM | selectivity for TRPV4 versus TRPA1, TRPM8, TRPV3 and TRPV1 (human TRPV4; comparison of IC50 values): substantially more selective for TRPV4 | IC50 (human TRPA1): 20.7 µM | IC50 (TRPM8): 17.8 µM | IC50 (TRPV3): > 100 µM | IC50 (TRPV1): 6 µM
SMILES: CNCC1(COc2ccc(C#N)c(F)c2)CN(S(=O)(=O)c2ccc(Cl)cc2Cl)C1 [Compound 16, 4-((1-((2,4-Dichlorophenyl)sulfonyl)-3-((methylamino)methyl)azetidin-3-yl)methoxy)-2-fluorobenzonitrile hydrochloride]

IC50 (human TRPV4): 0.0002 to 0.0006 µM | IC50 (human TRPA1): > 35.5 µM | IC50 (TRPM8): 25.4 µM | IC50 (TRPV3): > 50 µM | IC50 (TRPV1): 5.3 µM
SMILES: N#Cc1ccc(OCC2(CNCCO)CN(S(=O)(=O)c3ccc(Cl)cc3Cl)C2)cc1F [Compound 17, 4-((1-((2,4-Dichlorophenyl)sulfonyl)-3-(((2-hydroxyethyl)amino)methyl)azetidin-3-yl)methoxy)-2-fluorobenzonitrile]

IC50 (human TRPV4): 0.0041 µM
SMILES: N#Cc1ccc(OCC2(CNCC3CCOC3)CN(S(=O)(=O)c3ccc(Cl)cc3Cl)C2)cc1F (stereo not drawn) [Compound 23, 4-((1-((2,4-Dichlorophenyl)sulfonyl)-3-((((tetrahydrofuran-3-yl)methyl)amino)methyl)azetidin-3-yl)methoxy)-2-fluorobenzonitrile hydrochloride]

IC50 (human TRPV4): 0.0004 µM
SMILES: C[C@H](O)CNCC1(COc2ccc(C#N)c(F)c2)CN(S(=O)(=O)c2ccc(Cl)cc2Cl)C1 [Compound 31, (S)-4-((1-((2,4-dichlorophenyl)sulfonyl)-3-(((2-hydroxypropyl)amino)methyl)azetidin-3-yl)methoxy)-2-fluorobenzonitrile hydrochloride]

IC50 (human TRPV4): 0.00079 µM
SMILES: N#Cc1ccc(OCC2(CN[C@H]3C[C@H](O)C3)CN(S(=O)(=O)c3ccccc3C#N)C2)cc1F [Compound 113, 4-((1-((2-Cyanophenyl)sulfonyl)-3-(((trans-3-hydroxycyclobutyl)amino)methyl)azetidin-3-yl)methoxy)-2-fluorobenzonitrile]
